Assay results reported in US20230165921A1, “USE OF DANDELION AND MONOMER COMPOUNDS THEREOF FOR KILLING MITES” (SMILEBIOTEK ZHUHAI LIMITED, priority 2020, published 2023).
Entries after “also recorded” stand apart in the source; their conditions may differ.

Tests used:
Demodex mites [1] = test: Preliminary in-vitro screening of monomer compounds for effect on survival time of Demodex mites; set-up: species or system D. folliculorum; details: 20° C., humidity 96%; for Survival time: in vitro, 35 µL monomer compound solution in 10% DMSO, mean ± SD; for in-vitro survival time of Demodex mites compared with the negative control group receiving 10% DMSO solution: in words
Protocol: The powders of the monomer compounds shown in Table 2 were separately dissolved in dimethyl sulfoxide (DMSO), and then diluted with sterilized double-distilled water to make the final concentration of DMSO 10%, which could not shorten the survival time of Demodex mites as per a controlled study. The negative control group received DMSO mixed with sterilized water at a final concentration of 10%.
As in Example 1, 35 µL of each solution was added to a glass slide, and the survival of the mites was observed under an optical microscope every 2 hours. During the experiment, the Demodex mites were observed by two skilled operators separately for the activities (bodies, limbs and the like) through the microscope to determine whether they were dead or not. If the two operators gave different results, the survival status was determined independently by a third skilled operator. The in-vitro culture was conducted in a climatic chamber at a temperature of 20° C. and a humidity of 96%. During the observation, the glass slides were transported in a wet box to ensure the high humidity.
In this experiment, statistical analysis was conducted using SPSS22.0 statistical software, normality test was conducted using Shapiro-Wilk test, and homogeneity of variance test was conducted using Bartlett’s test.
Effects of monomer compounds of traditional Chinese medicine on survival time of D. folliculorum The in-vitro culture of the Demodex mites was conducted in an environment at a humidity of 96% and a temperature of 20° C. The survival of the Demodex mites was observed dynamically and the survival time was recorded.

Demodex mites [2] = test: In-vitro culture of Demodex mites with traditional Chinese medicine decoctions: survival time; set-up: species or system D. folliculorum; details: 20° C., humidity 96%
Protocol: The detection of Demodex mites was performed according to the conventional method of eyelash microscopy (12,20). 3 eyelashes were collected from each eyelid, with a total of 12 eyelashes. The collected eyelashes were immediately placed on glass slides with three eyelashes on each glass slide, and the glass slides were examined under a common optical microscope for observation. Demodex mites in all periods were counted and classified according to morphology (specific standard: D. brevis with a head-to-body ratio of 1:1, and D. folliculorum with a head-to-body ratio of 1:3 to 1:4). […]
On the basis of the above detection of Demodex mites, 35 µL of the solutions was separately added to the slides, and the survival of the mites was observed every 2 hours. […] If the two operators gave different results, the survival status was determined independently by a third skilled operator. […]
60 g of dried ready-to-use forms was weighed using an electronic balance, and soaked in water with an amount of 10 times (600 mL) in a marmite overnight. […]
The in-vitro culture of the Demodex mites was conducted in an environment at a humidity of 96% and a temperature of 20° C. The survival of the Demodex mites was observed dynamically and the survival time was recorded.

SMILES	Survival time (Demodex mites [1])	in-vitro survival time of Demodex mites compared with the negative control group receiving 10% DMSO solution (Demodex mites [1])	Survival time (Demodex mites [2]; in vitro, 35 µL solution on slide, decoction 60 g in 100 mL, TTO and T4O 10% in sterilized water, mean ± SD)	in-vitro survival time of Demodex mites compared with the negative control (sterilized water) (Demodex mites [2]; in words)
C=C1CC[C@]2(C)CC[C@]3(C)[C@H](CC[C@@H]4[C@@]5(C)CC[C@H](OC(C)=O)C(C)(C)[C@@H]5CC[C@]43C)[C@H]2[C@@H]1C [Taraxasterol acetate]	37.91 ± 20.96 h	significantly shorter; also recorded: can significantly shorten the survival time of the mites		
CC1=CCC(O)(C(C)C)CC1 (stereo not shown) [T4O, terpinen-4-ol]			40.50 ± 13.12 h	did not show significant differences
CC1(C)CC[C@]2(C)CC=C3[C@]4(C)CC[C@H]5C(C)(C)[C@@H](O)CC[C@]5(C)[C@H]4CC[C@@]3(C)[C@@H]2C1 [Taraxerol]		significantly shorter; also recorded: can significantly shorten the survival time of the mites		
O=C(O)/C=C/c1ccc(O)c(O)c1 [Caffeic acid]	66.45 ± 24.24 h			
COc1ccc(-c2cc(=O)c3c(O)cc(O)cc3o2)cc1O [Diosmetin]		significantly shorter; also recorded: can significantly shorten the survival time of the mites		
